From US20240246942A1, “KINASE INHIBITORS FOR THE TREATMENT OF NEURODEGENERATIVE DISEASES” (priority 2020, published 2024)

How the values were obtained:
Assay in all cases: biochemical
[1] = molecular target: T1, panel of 374 wild-type kinases (Homo sapiens, UniProt P43403); settings: read-out: % Enzyme Activity (relative to DMSO controls), kinase ZAP70
T1 construct: purchased Reaction Biology Corporation
T1 sequence (P43403 1-619): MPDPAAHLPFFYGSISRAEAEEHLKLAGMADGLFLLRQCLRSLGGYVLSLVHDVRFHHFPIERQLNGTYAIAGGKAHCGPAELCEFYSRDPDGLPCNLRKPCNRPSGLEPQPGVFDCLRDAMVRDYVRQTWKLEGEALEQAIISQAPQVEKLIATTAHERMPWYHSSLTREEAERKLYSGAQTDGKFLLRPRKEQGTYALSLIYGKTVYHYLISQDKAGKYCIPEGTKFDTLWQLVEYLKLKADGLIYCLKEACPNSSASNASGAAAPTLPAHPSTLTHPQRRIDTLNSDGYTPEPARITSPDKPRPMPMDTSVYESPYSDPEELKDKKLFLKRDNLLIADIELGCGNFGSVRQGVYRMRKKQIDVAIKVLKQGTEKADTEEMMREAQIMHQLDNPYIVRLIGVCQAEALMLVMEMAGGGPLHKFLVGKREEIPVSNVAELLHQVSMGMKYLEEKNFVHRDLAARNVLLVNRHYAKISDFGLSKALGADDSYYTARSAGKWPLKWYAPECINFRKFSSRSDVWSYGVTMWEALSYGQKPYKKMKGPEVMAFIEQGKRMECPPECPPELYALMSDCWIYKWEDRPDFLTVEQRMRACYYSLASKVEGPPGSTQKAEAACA

[2] = molecular target: T2, panel of 374 wild-type kinases (Homo sapiens, UniProt Q04912); settings: read-out: % Enzyme Activity (relative to DMSO controls), kinase RON/MST1R
T2 construct: purchased Reaction Biology Corporation

[3] = molecular target: T3, panel of 374 wild-type kinases (Homo sapiens, UniProt Q08345); settings: read-out: % Enzyme Activity (relative to DMSO controls), DDR1
T3 construct: purchased Reaction Biology Corporation

[4] = molecular target: T4, panel of 374 wild-type kinases (Homo sapiens, UniProt Q8IVT5); settings: read-out: % Enzyme Activity (relative to DMSO controls), KSR1
T4 construct: purchased Reaction Biology Corporation
T4 sequence (Q8IVT5 1-923): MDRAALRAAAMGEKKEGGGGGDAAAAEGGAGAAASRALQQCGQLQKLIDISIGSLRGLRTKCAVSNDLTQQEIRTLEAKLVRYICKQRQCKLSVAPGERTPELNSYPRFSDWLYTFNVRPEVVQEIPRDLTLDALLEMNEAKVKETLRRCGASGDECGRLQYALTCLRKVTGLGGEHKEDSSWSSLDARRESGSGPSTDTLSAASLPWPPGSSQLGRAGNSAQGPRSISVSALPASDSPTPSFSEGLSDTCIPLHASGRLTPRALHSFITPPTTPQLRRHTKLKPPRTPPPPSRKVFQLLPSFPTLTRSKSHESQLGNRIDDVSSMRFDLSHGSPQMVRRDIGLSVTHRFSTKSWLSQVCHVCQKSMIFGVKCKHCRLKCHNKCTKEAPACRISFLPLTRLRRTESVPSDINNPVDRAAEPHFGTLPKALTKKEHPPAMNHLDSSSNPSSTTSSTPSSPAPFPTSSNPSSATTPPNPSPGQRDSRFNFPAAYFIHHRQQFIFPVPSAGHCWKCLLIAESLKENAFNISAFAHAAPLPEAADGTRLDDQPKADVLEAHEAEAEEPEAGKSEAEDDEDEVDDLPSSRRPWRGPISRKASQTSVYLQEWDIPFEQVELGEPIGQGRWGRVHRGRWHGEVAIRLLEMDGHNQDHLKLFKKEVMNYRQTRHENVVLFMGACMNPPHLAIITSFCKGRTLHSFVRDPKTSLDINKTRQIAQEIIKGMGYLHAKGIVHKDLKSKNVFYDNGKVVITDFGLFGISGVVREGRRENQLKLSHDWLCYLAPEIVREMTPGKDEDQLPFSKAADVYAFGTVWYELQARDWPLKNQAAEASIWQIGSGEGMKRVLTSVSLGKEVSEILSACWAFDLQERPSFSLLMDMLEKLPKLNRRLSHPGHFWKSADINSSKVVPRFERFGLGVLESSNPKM

[5] = molecular target: T5, panel of 374 wild-type kinases (Homo sapiens, UniProt Q9UKI8); settings: read-out: % Enzyme Activity (relative to DMSO controls), kinase TLK1
T5 construct: purchased Reaction Biology Corporation
T5 sequence (Q9UKI8 1-766): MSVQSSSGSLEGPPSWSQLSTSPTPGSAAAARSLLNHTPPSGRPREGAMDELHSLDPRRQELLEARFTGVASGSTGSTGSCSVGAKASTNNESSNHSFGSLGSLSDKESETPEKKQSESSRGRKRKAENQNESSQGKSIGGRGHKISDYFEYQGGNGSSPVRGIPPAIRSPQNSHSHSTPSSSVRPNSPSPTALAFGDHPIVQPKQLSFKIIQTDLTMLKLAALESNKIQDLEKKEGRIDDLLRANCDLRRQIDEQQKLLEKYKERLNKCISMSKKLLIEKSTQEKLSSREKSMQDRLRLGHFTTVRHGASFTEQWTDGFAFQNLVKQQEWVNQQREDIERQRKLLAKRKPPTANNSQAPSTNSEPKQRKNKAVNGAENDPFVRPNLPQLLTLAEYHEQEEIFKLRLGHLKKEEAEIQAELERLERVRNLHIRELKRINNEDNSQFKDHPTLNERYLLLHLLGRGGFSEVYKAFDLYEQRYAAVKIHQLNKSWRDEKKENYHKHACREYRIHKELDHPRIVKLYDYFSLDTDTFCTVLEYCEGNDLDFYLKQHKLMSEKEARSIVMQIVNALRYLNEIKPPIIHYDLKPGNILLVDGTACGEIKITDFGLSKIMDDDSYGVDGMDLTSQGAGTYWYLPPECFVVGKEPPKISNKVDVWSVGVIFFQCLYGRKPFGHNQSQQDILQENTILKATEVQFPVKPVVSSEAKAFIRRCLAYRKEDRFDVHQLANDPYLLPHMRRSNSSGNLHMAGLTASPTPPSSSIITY

T3 sequence (Q08345 19-913): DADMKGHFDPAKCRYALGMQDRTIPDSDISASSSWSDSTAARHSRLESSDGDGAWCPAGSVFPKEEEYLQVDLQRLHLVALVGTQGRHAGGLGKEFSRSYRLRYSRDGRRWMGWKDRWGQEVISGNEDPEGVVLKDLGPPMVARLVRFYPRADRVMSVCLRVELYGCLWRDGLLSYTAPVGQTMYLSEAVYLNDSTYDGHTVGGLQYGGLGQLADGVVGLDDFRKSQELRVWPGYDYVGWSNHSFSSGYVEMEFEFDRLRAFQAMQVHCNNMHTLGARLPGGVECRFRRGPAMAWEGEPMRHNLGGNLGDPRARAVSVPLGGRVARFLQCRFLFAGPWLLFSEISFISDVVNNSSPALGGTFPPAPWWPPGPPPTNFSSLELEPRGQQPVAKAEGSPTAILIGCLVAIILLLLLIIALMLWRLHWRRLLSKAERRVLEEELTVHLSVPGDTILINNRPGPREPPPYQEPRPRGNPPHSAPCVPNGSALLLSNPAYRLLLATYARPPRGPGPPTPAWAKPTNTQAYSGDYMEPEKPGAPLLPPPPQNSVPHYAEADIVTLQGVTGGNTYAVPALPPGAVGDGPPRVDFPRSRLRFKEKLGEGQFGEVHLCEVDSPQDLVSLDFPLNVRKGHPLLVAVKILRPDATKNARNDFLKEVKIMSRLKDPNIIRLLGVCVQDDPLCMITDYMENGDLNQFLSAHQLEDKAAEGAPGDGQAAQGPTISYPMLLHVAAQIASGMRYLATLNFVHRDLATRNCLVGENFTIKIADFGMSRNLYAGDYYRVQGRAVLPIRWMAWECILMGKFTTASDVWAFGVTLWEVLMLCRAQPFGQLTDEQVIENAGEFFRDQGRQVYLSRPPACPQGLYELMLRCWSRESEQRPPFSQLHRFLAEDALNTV
T2 sequence (Q04912 25-1400): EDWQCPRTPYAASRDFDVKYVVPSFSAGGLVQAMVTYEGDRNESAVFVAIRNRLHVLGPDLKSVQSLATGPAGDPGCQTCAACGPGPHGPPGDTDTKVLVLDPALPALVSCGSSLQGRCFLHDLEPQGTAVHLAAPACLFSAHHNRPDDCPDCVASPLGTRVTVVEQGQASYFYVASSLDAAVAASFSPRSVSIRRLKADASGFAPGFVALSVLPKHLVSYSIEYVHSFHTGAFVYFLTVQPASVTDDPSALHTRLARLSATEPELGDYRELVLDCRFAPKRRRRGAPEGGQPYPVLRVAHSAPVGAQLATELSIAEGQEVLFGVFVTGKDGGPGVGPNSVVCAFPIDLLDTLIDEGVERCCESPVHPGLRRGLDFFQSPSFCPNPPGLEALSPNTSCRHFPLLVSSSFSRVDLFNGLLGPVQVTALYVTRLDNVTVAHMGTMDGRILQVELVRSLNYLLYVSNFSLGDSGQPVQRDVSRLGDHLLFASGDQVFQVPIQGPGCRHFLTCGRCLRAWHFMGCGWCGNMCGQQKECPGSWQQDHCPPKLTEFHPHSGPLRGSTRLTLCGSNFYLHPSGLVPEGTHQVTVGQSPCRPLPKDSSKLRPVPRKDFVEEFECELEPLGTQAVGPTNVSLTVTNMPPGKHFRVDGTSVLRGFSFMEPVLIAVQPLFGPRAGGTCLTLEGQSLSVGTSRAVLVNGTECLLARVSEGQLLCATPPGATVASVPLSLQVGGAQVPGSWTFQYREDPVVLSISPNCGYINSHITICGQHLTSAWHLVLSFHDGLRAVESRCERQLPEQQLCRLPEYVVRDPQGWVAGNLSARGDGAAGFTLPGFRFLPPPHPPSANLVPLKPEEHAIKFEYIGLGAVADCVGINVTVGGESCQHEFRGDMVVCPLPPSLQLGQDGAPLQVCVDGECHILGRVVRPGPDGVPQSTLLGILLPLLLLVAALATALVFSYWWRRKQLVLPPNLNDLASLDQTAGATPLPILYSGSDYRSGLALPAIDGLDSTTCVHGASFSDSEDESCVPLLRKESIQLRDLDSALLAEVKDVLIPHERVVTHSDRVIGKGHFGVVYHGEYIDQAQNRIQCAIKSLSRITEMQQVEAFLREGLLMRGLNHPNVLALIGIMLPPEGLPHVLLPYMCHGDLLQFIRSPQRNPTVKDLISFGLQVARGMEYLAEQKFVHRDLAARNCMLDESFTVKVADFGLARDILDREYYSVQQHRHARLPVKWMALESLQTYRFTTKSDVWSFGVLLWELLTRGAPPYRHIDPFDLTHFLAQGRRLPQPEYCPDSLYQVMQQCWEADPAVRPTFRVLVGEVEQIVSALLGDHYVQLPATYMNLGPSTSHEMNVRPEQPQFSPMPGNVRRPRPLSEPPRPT

SMILES: O=C(Nc1cnn(-c2csc(C(=O)NC3COC3)c2)c1)Nc1ccccc1Cl [Compound 17, 4-(4-(3-(2-chlorophenyl)ureido)-1H-pyrazol-1-yl)-N-(oxetan-3-yl)thiophene-2-carboxamide]
- remaining activity at 5 µM [1]: 102%
- remaining activity at 5 µM [2]: 108%
- remaining activity at 5 µM [3]: 98.4%
- remaining activity at 5 µM [4]: 101%
- remaining activity at 5 µM [5]: 105%

SMILES: O=C(Nc1cnn(-c2csc(C(=O)NC3COC3)c2)c1)Nc1c(F)cccc1Cl [Compound 25, 4-(4-(3-(2-chloro-6-fluorophenyl)ureido)-1H-pyrazol-1-yl)-N-(oxetan-3-yl)thiophene-2-carboxamide]
- remaining activity at 5 µM [1]: 104%
- remaining activity at 5 µM [2]: 100%
- remaining activity at 5 µM [3]: 88.9%
- remaining activity at 5 µM [4]: 105%
- remaining activity at 5 µM [5]: 53.4%

SMILES: Cc1sc(C(=O)NC2COC2)cc1-n1cc(NC(=O)Nc2c(F)cccc2Cl)cn1 [Compound 27, 4-(4-(3-(2-chloro-6-fluorophenyl)ureido)-1H-pyrazol-1-yl)-5-methyl-N-(oxetan-3-yl)thiophene-2-carboxamide]
- remaining activity at 10 µM ([1]; 10 uM): 103%
- remaining activity at 10 µM ([2]; 10 uM): 96.9%
- remaining activity at 10 µM ([3]; 10 uM): 83.7%
- remaining activity at 10 µM ([4]; 10 uM): 103%
- remaining activity at 10 µM ([5]; 10 uM): 105%
